Patent publication US12630546B2, “RNF4 targeting compounds and uses thereof” (TECHNION RESEARCH & DEVELOPMENT FOUNDATION LIMITED, priority 2021, dated 2026)
Entries after “also recorded” stand apart in the source; their conditions may differ.

How the values were obtained:
[1] = biological target: T1, RNF4 (Homo sapiens, UniProt P78317); assay: RNF4 protein level by western blot after R4VP treatment; assay type: cell-based; design: RNF4 degradation in the presence of proteasome inhibitor MG132: dose or concentration left out as unconfirmed
T1 construct: endogenous in cells; host or cells: A375 / A375R human melanoma cells
T1 sequence (P78317 1-190): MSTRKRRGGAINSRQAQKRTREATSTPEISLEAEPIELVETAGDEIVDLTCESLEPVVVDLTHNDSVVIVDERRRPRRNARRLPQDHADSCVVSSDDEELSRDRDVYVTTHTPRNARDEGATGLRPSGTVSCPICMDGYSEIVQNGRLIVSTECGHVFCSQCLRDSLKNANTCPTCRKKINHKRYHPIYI
Method: Protein stability was determined in steady state and dynamic CHX chase experiments as described (Trausch-Azar et al. 2015). Proteins resolved over SDS-PAGE, using the indicated antibodies, and visualized using chemiluminescence (Image-Quan LAS4000). Where indicated cells were treated for the indicated times and concentrations with R4VP or related compounds.

[2] = tested on: human Myeloma U266 cells; assay: Cell viability (MTT) of multiple myeloma cells; assay type: cell-based; conditions: concentrations similar to A375R
Method: (§1) Cell viability was assessed using MTT (Sigma-Aldrich) and ATP-lite (Perkin Elmer) assays according to the manufacture instructions. In assays evaluating resistance to PLX4032, PLX4032-treated cells were cultured for six days before analysis. Viability was measured using cells were performed in 96-well plates and cells incubated for 24 h at 37° C. Next, cells were incubated in MTT solution (Sigma-Aldrich) and processed according to the manufacturer instructions and analyzed using Stat Fax 2100 ELISA reader.

[3] = tested on: human A375R melanoma; assay: Colony formation of PLX-resistant melanoma cells; assay type: cell-based; conditions: added at cell seeding, colonies visualized 8 d after seeding
[4] = tested on: A375R melanoma cells; assay: Cell viability (MTT) of Vemurafenib-resistant melanoma cells; assay type: cell-based, human; conditions: six days, in presence of PLX4032
Method: as §1

[5] = tested on: human U2OS sarcoma cells; assay: Colony formation of osteosarcoma cells; assay type: cell-based; conditions: added at cell seeding, colonies visualized 9 d after seeding
[6] = tested on: human squamous skin cancer cells (SCC1); assay: Colony formation of squamous cell carcinoma cells; assay type: cell-based
Method: Colony formation assay: Cells were suspended in DMEM or RPMI medium and seeded at a density of 1000 cells/well. Plates were maintained at 37° C. for six days, fixed overnight with 4% paraformaldehyde (PFA), stained with 0.05% crystal violet.

[7] = tested on: A375R melanoma cells; assay: Cell death by FACS analysis (sub-G1); assay type: cell-based, human; conditions: 3 h exposure, 20 uM
[8] = tested on: U2OS human osteosarcoma cells; assay: Cell viability (MTT) of osteosarcoma cells; assay type: cell-based; conditions: concentrations similar to A375R
Method: as §1

[9] = tested on: B16F10 murine melanoma cells; assay: Colony formation of B16F10 melanoma cells; assay type: cell-based, mouse; conditions: nine days
[10] = tested on: mouse melanoma B16F10 cancer cells; assay: Cell viability (MTT) of B16F10 melanoma cells; assay type: cell-based; conditions: three days treatment
Method: as §1

Cc1ncsc1-c1ccc(CNC(=O)[C@H]2C[C@@H](O)CN2C(=O)[C@H](NC(=O)CCC(=O)NCCCCOc2ccc(Oc3ccc(N(Cc4ccccc4)C(=O)CCl)cc3)cc2)C(C)(C)C)cc1 [R4VP, N1-(4-(4-(4-(N-benzyl-2-chloroacetamido)phenoxy)phenoxy)butyl)-N4-((R)-1-((2R,4R)-4-hydroxy-2-((4-(4-methylthiazol-5-yl)benzyl)carbamoyl)pyrrolidin-1-yl)-3,3-dimethyl-1-oxobutan-2-yl)succinamide]
RNF4 degradation in the presence of proteasome inhibitor MG132 ([1]; A375R cells, MG132 as printed): can be inhibited by the proteasome inhibitor MG132; also recorded: restored to levels similar to control treated cells
RNF4 protein level (exogenous HA-RNF4 or endogenous) ([1]; A375R cells, three hours treatment, western blot): reduced the level of exogenous or endogenous RNF4 protein; also recorded: induced degradation of RNF4
endogenous RNF4 level, dose dependence ([1]; A375 melanoma cells): reduces the level of endogenous RNF4 in A375 melanoma cells in a dose dependent manner
effect on proliferation of U266 cells [2]: growth inhibitory effects were also observed; also recorded: inhibits proliferation of human Myeloma U266cells
effect on colony formation of A375R cells [3]: inhibited colony formation of melanoma and osteosarcoma cells in a dose dependent manner; also recorded: inhibits colony formation of human A375R melanoma
concentration inhibiting growth and proliferation ([4]; A375R): ≥ 10 µM
effect on growth and proliferation of A375R cells [4]: inhibits A375R proliferation
effect on colony formation of U2OS cells [5]: inhibited colony formation of melanoma and osteosarcoma cells in a dose dependent manner; also recorded: inhibits colony formation of human U2OS sarcoma cells
effect on colony formation of SCC1 cells ([6]; 1, 3 and 5 μM): inhibiting colony formation
IC50 ([6]; Homo sapiens, squamous cell carcinoma cell line, printed HCC1): < 1000 nM
cell death, accumulation of cells in sub-G1 [7]: extensive cell death
cell death, accumulation of cells in sub-G1 ([7]; listed as RNF4-VHL-PROTAC): results in cell-death
effect on proliferation of U2OS cells [8]: growth inhibitory effects were also observed; also recorded: inhibits proliferation of U2OS human osteosarcoma cells in a dose dependent manner
effect on colony formation of B16F10 cells [9]: inhibits proliferation and colony formation
effect on colony formation of B16F10 cells ([9]; listed as RNF4-VHL-PROTAC): inhibits cell proliferation and colony formation
effect on proliferation/viability of B16F10 cells [10]: inhibits proliferation and colony formation
effect on proliferation/viability of B16F10 cells ([10]; listed as RNF4-VHL-PROTAC): inhibits cell proliferation and colony formation
